This test deals with human ether-a-go-go-related gene (hERG) potassium channel (Homo sapiens, UniProt Q12809). The test is described as follows: whole-cell patch clamp, hERG tail current in hERG-HEK-293 cells. Format: cell-based.

pIC50: −log10 of the molar value.

human ether-a-go-go-related gene (hERG) potassium channel, sequence (Q12809 whole entry): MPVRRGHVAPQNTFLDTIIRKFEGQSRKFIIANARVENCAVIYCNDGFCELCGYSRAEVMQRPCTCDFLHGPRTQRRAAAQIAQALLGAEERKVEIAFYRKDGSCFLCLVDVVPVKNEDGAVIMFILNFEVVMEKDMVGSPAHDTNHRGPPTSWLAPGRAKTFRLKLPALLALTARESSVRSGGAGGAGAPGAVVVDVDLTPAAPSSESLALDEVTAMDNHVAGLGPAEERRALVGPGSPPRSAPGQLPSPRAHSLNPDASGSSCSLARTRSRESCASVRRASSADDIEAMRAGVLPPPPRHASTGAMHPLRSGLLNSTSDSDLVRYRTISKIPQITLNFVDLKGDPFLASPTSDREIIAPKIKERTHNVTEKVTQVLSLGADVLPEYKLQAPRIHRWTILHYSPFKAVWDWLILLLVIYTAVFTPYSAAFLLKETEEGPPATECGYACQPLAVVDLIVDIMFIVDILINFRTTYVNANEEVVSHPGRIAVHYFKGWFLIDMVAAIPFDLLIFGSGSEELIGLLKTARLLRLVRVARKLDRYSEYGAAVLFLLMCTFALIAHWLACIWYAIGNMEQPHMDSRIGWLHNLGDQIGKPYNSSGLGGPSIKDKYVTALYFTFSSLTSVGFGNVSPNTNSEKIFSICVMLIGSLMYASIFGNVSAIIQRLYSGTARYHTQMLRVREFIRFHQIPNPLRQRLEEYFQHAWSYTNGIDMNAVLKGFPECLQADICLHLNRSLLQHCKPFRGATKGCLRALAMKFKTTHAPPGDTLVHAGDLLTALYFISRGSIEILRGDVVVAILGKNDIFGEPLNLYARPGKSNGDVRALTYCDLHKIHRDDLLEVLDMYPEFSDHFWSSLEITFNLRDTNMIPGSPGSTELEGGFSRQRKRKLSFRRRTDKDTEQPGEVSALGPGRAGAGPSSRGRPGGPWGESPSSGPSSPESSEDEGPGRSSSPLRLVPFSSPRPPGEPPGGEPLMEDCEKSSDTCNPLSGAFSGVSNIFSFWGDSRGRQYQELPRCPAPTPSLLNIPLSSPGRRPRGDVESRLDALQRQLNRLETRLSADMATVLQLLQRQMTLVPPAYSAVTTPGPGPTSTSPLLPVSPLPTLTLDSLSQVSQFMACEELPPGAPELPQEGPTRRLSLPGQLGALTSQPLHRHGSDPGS

`CCN(CCO)CCCC(C)Nc1ccnc2cc(Cl)ccc12` (stereo not shown) [HCQ, Hydroxychloroquine] had a pIC50 of 5.07.

(Values after publication PMC8161735 (Toxicology, 2021).)
